Legend:
BCR-NTRK3 BaF3 cells = target: T1, BCR-NTRK3 BaF3 cells (Homo sapiens, UniProt Q16288); assay: BaF3 BCR-NTRK3 cell proliferation assay (ATPlite); assay type: cell-based; conditions: read-out: Inhibition of Cell Proliferation IC50, BCR/BaF3 TrkC
T1 construct: fused on or other part: P11274 (Breakpoint cluster region protein)
Method in brief: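 BaF3 cells expressing BCR fusions were plated at 10,000 cells/well without IL-3, and MV-4-11 cells at 25,000 cells/well. Cells were treated the next day with an 8-point 1:3 dilution series (top 10 μM final) and incubated 3 days at 37 °C. ATPlite luminescence gave cell number, from which IC50 was fitted.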

MV-4-11 cells = assay: MV-4-11 (leukemia) cell proliferation assay (ATPlite); assay type: cell-based; conditions: Homo sapiens, MV4-11, read-out: Inhibition of Cell Proliferation IC50, MV-4-11
Method: Compounds are assessed in a variety of cell based assays. For example BaF3 cells engineered with any of BCR-FMS, BCR-KIT, BCR-FLT3, BCR-NTRK1, BCR-NTRK2, and BCR-NTRK3, are used in cell proliferation assays to assess inhibitory activity of Fms, Kit, Flt-3, TrkA, TrkB, and TrkC, respectively. An MV-4-11 (leukemia) cell proliferation assay is used to assess inhibitory activity in Flt-3, and SKNSH (human neuroblastoma) cell proliferation assay is used to assess efficacy of Fms/Trk inhibitors. Additional cells may be assayed similarly to assess the efficacy of Fms/Trk inhibitors, such as MiaPaCa (human pancreatic cancer) and Capan-1 (human pancreatic carcinoma) cells. Reagent and assay conditions are as follows: • BaF3 cells: • Maintained in RPMI containing 10% FBS, 1% PenStrep, 1% NEAA, and 1% L-Glutamine, supplemented with 1 mg/mL G418 and 5% WEHI-CM (or recombinant murine IL-3). • Confluent cells are split 1:50 to 1:100 every 3-4 days. • MV-4-11 cells: • Maintained in Iscove's Modified Dulbecco's Medium containing 10% FBS. • Confluent cells are split 1:4 every 3-4 days. • SKNSH cells: RPMI containing 10% FBS. On day 1, cells are counted, then centrifuged in a conical tube for 5 minutes at 1000 rpm. The supernatant is removed and cells are re-suspended as follows: • BaF3: resuspend in growth media +1 mg/mL G418 (without WEHFIL-3) to 2×10^5 cells/mL. • MV-4-11: resuspend in growth media to 5×10^5 cells/mL. • SKNSH: resuspend in growth media to 2×10^4 cells/mL. The cells are plated (50 μL, 150 μL for SKNSH cells) in each well of a 96-well dish (Corning 3610) and incubated at 37° C. in 5% CO2 overnight, cells plated to a final concentration of cells as follows: • BaF3: 10,000 cells per well. • MV-4-11: 25,000 cells per well. • SKNSH: 3,000 cells per well. On day 2, compound at a maximum concentration of 5 mM is serially diluted 1:3 for a total of 8 point titration with DMSO as a control. A 1 μL aliquot of each dilution point is added to 249 μL growth media and 50 μL is added to a well containing cells, providing 10 μM compound for the maximum concentration point. The cells are incubated for 3 days at 37° C. in 5% CO2. For SKNSH cells, a 0.75 μL aliquot of appropriate dilution in DMSO is added to 150 μL of cells. On day 5, ATPlite 1 step Luminescence Assay System (Perkin Elmer #6016739) is brought to room temperature along with the cell cultures. ATPlite is added to each well as follows: • BaF3: 25 μL per well. • MV-4-11: 40 μL per well. • SKNSH: 20 μL per well. The cells are incubated at room temperature for 10 minutes, then luminescence is read on Safire reader. The measured luminescence correlates directly with cell number, such that the reading as a function of compound concentration is used to determine the IC50 value.
It is understood that the results of these assays may vary as assay conditions are varied. Inhibition levels determined under the conditions described herein represent a relative activity for the compounds tested under the specific conditions employed. The cell based assays are likely to show variability due to the complexity of the system and the sensitivity thereof to any changes in the assay conditions. […] Results for compounds that are tested and show substantially no inhibition below the highest tested concentration are represented as “-” in the tables below. In some instances, the compounds were not tested in all of the assays, or assay results were not valid, as indicated by NA in the tables below.

[1] = Relative solubility by turbidity in aqueous buffers (pH 1.5, 4.5, 6.8, 7.4); assay type: physicochemical; conditions: for turbidity threshold (L, M, H) 1.4: pH 1.5 (SGF); for turbidity threshold (L, M, H) 4.5: pH 4.5 (SIF); for turbidity threshold (L, M, H) 6.8: pH 6.8 (SIF); for turbidity threshold (L, M, H) 7.4: pH 7.4 (HEPES)
Method in brief: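 Twofold DMSO dilutions of a 25 mM stock were spiked into SGF (0.5M NaCl, pH 1.5), SIF (0.05M NaH2PO4, pH 4.5 and 6.8) or HEPES buffer (10 mM HEPES, 150 mM NaCl, pH 7.4). Absorbance was read at 490, 535 and 650 nm. The endpoint is the concentration crossing O.D. 0.01, averaged across wavelengths.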

T1 sequence (Q16288 whole entry, the tested form may be a part): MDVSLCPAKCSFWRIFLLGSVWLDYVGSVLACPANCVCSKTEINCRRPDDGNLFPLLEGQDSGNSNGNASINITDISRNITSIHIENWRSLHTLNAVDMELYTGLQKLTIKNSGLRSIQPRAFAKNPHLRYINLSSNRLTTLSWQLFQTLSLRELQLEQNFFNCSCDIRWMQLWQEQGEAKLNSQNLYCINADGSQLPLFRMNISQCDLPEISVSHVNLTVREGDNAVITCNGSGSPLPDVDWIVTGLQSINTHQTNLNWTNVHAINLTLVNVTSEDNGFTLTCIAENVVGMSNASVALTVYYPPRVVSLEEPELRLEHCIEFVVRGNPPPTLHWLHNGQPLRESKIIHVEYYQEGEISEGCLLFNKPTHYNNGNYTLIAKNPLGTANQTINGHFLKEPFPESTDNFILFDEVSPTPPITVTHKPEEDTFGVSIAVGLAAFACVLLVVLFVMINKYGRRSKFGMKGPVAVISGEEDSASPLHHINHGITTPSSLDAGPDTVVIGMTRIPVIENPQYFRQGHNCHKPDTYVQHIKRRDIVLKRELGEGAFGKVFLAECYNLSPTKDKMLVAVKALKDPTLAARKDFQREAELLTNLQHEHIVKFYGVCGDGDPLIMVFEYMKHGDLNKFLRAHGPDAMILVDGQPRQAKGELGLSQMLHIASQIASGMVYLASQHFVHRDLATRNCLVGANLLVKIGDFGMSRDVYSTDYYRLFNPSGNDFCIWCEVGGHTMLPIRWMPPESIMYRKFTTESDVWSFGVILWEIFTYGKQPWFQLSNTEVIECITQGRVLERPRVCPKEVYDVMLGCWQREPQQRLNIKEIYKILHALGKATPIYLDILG

Structure (SMILES)	IC50 (BCR-NTRK3 BaF3 cells) [nM]	IC50 (MV-4-11 cells) [nM]	turbidity threshold (L, M, H) 1.4 [1]	turbidity threshold (L, M, H) 4.5 [1]	turbidity threshold (L, M, H) 6.8 [1]	turbidity threshold (L, M, H) 7.4 [1]
FC1(F)CCC(Nc2ncc(Cc3c[nH]c4ncc(Cl)cc34)cn2)CC1 [Compound P-3004]	< 10000	< 10000	H (high solubility if the threshold concentration is >250 μm)	L (low solubility if the threshold concentration is <31.3 μM)	L (low solubility if the threshold concentration is <31.3 μM)	L (low solubility if the threshold concentration is <31.3 μM)
COc1cc(Nc2ncc(Cc3c[nH]c4ncc(C)cc34)cn2)ccc1F [Compound P-3022, (4-Fluoro-3-methoxy-phenyl)-[5-(5-methyl-1H-pyrrolo[2,3-b]pyridin-3-ylmethyl)-pyrimidin-2-yl]-amine]	< 1000	< 1000				
COc1ccc(Nc2ncc(Cc3c[nH]c4ncc(C)cc34)cn2)cc1F [Compound P-3023, (3-Fluoro-4-methoxy-phenyl)-[5-(5-methyl-1H-pyrrolo[2,3-b]pyridin-3-ylmethyl)-pyrimidin-2-yl]-amine]	< 1000	< 100				
CCOc1ccc(Nc2ncc(Cc3c[nH]c4ncc(C)cc34)cn2)cn1 [Compound P-3027, (6-Ethoxy-pyridin-3-yl)-[5-(5-methyl-1H-pyrrolo[2,3-b]pyridin-3-ylmethyl)-pyrimidin-2-yl]-amine]	< 100	< 10				
CCn1ccc(Nc2ncc(Cc3c[nH]c4ncc(C)cc34)cn2)n1 [Compound P-3035, (1-Ethyl-1H-pyrazol-3-yl)-[5-(5-methyl-1H-pyrrolo[2,3-b]pyridin-3-ylmethyl)-pyrimidin-2-yl]-amine]	< 100	< 1000				
CCn1cc(Nc2ncc(Cc3c[nH]c4ncc(C)cc34)cn2)cn1 [Compound P-3036, (1-Ethyl-1H-pyrazol-4-yl)-[5-(5-methyl-1H-pyrrolo[2,3-b]pyridin-3-ylmethyl)-pyrimidin-2-yl]-amine]	< 1000	< 100				
Cc1cnc2[nH]cc(Cc3cnc(Nc4cc(OC(C)C)n[nH]4)nc3)c2c1 [Compound P-3038, (5-Isopropoxy-2H-pyrazol-3-yl)-[5-(5-methyl-1H-pyrrolo[2,3-b]pyridin-3-ylmethyl)-pyrimidin-2-yl]-amine]	< 1000	> 1000				
CCOc1ccc(Nc2ccc(Cc3c[nH]c4ncc(C)cc34)c(F)n2)cn1 [Compound P-3039, (6-ethoxy-pyridin-3-yl)-[6-fluoro-5-(5-methyl-1H-pyrrolo[2,3-b]pyridin-3-ylmethyl)-pyridin-2-yl]-amine]	< 100	< 1000	H (high solubility if the threshold concentration is >250 μm)	M (moderate solubility if the threshold concentration is 31.3 μM to 250 μM)	M (moderate solubility if the threshold concentration is 31.3 μM to 250 μM)	M (moderate solubility if the threshold concentration is 31.3 μM to 250 μM)
Fc1nc(NC2CCC(F)(F)CC2)ccc1Cc1c[nH]c2ncnc(NC3CC3)c12 [Compound P-4129, N-cyclopropyl-5-[[6-[(4,4-difluorocyclohexyl)amino]-2-fluoro-3-pyridyl]methyl]-7H-pyrrolo[2,3-d]pyrimidin-4-amine]	< 100		H (high solubility if the threshold concentration is >250 μm)	M (moderate solubility if the threshold concentration is 31.3 μM to 250 μM)	M (moderate solubility if the threshold concentration is 31.3 μM to 250 μM)	M (moderate solubility if the threshold concentration is 31.3 μM to 250 μM)

Second part, led by results:

IC50 (BCR-NTRK3 BaF3 cells) [nM]	IC50 (MV-4-11 cells) [nM]	Structure (SMILES)	turbidity threshold (L, M, H) 1.4 [1]	turbidity threshold (L, M, H) 4.5 [1]	turbidity threshold (L, M, H) 6.8 [1]	turbidity threshold (L, M, H) 7.4 [1]
< 100	< 10	Cc1cnc2[nH]cc(Cc3cnc(Nc4ccc(C(F)(F)F)nc4)nc3)c2c1 [Compound P-3018, [5-(5-Methyl-1H-pyrrolo[2,3-b]pyridin-3-ylmethyl)-pyrimidin-2-yl]-(6-trifluoromethyl-pyridin-3-yl)-amine]	H (high solubility if the threshold concentration is >250 μm)	M (moderate solubility if the threshold concentration is 31.3 μM to 250 μM)	M (moderate solubility if the threshold concentration is 31.3 μM to 250 μM)	M (moderate solubility if the threshold concentration is 31.3 μM to 250 μM)
< 100	< 1000	COc1ccc(Nc2ccc(Cc3c[nH]c4ncc(C)cc34)c(F)n2)cn1 [Compound P-3019, [6-fluoro-5-(5-methyl-1H-pyrrolo[2,3-b]pyridin-3-ylmethyl)-pyridin-2-yl]-(6-methoxy-pyridin-3-yl)-amine]	H (high solubility if the threshold concentration is >250 μm)	L (low solubility if the threshold concentration is <31.3 μM)	L (low solubility if the threshold concentration is <31.3 μM)	L (low solubility if the threshold concentration is <31.3 μM)
< 100	< 100	COc1ccc(Nc2ncc(Cc3c[nH]c4ncc(C)cc34)cn2)cn1 [Compound P-3020, (6-Methoxy-pyridin-3-yl)-[5-(5-methyl-1H-pyrrolo[2,3-b]pyridin-3-ylmethyl)-pyrimidin-2-yl]-amine]				
< 10	< 1000	COc1ccc(Nc2ccc(Cc3c[nH]c4ncnc(OC)c34)c(F)n2)cn1 [Compound P-4001, [6-Fluoro-5-(4-methoxy-7H-pyrrolo[2,3-d]pyrimidin-5-ylmethyl)-pyridin-2-yl]-(6-methoxy-pyridin-3-yl)-amine]	M (moderate solubility if the threshold concentration is 31.3 μM to 250 μM)	M (moderate solubility if the threshold concentration is 31.3 μM to 250 μM)	M (moderate solubility if the threshold concentration is 31.3 μM to 250 μM)	M (moderate solubility if the threshold concentration is 31.3 μM to 250 μM)
< 10		Fc1nc(Nc2ccc(C3CC3)nc2)ccc1Cc1c[nH]c2ncnc(NCC(F)(F)F)c12 [Compound P-4130, 5-[[6-[(6-cyclopropyl-3-pyridyl)amino]-2-fluoro-3-pyridyl]methyl]-N-(2,2,2-trifluoroethyl)-7H-pyrrolo[2,3-d]pyrimidin-4-amine]	H (high solubility if the threshold concentration is >250 μm)	M (moderate solubility if the threshold concentration is 31.3 μM to 250 μM)	M (moderate solubility if the threshold concentration is 31.3 μM to 250 μM)	M (moderate solubility if the threshold concentration is 31.3 μM to 250 μM)

Source: patent publication US8901118B2, “Compounds and methods for kinase modulation, and indications therefor” (Plexxikon Inc., priority 2010, dated 2014)
